Experimental data reported in patent US8740843B2, “Coated balloon catheter” (Cook Medical Technologies LLC, priority 2009, dated 2014).

Assay: Elution of paclitaxel from coated balloon catheter assemblies in porcine serum elution medium (HPLC)
Type: physicochemical
Details: contrast media vs saline
Procedure: The rate of paclitaxel elution in each of the paclitaxel-coated balloon catheter assemblies described in Example 1 is analyzed in a porcine serum at 37° C. The coated balloon catheter assemblies are then divided into two groups, A and B. The coated balloon catheter assembly in Group A is designated to deliver a saline solution through the apertures of the outer balloon, while the coated balloon catheter assembly in Group B is designated to deliver a contrast media through the apertures of the outer balloon. The contrast media used is ISOVUE®-370 of Bracco Diagnostics (Princeton, N.J.), which included 370 mgl/mL of Iopamidol.
The coated balloon catheter assemblies, expanded to 4 ATM, is contacted with the porcine serum elution medium and continuously stirred for a desired period of time (e.g., at least one hour) selected to gradually dissolve the paclitaxel at a rate similar to dissolution in blood. […] The amount of the paclitaxel dissolved is measured as a function of time by monitoring with High Performance Liquid Chromatography (HPLC) the porcine serum elution medium after contact with the coated balloon catheter assembly. […] The outer balloon of each of the coated balloon catheter assemblies is then detached from the assembly and analyzed using HPCL to measure the amount of paclitaxel left on the coated outer balloon after being in contact with the elution medium for 60 minutes.

- lower amount of PTX on the outer balloon than Group A balloon catheters (after 60 minutes): ≤ 15%
- PTX elutes faster than Group A balloon catheters (time period of 2 to 10 minutes): 2-3 times
SMILES: CC(=O)O[C@H]1C(=O)[C@@]2(C)[C@H]([C@H](OC(=O)c3ccccc3)[C@]3(O)C[C@H](OC(=O)[C@H](O)[C@@H](NC(=O)c4ccccc4)c4ccccc4)C(C)=C1C3(C)C)[C@]1(OC(C)=O)CO[C@@H]1C[C@@H]2O [paclitaxel]
